Laboratory results taken from PubChem BioAssay (NCI).
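These data come from cells grown in 96-well plates and exposed to compound for 48 hours at five concentrations. At the TGI there is no net growth.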

Tests used:
Experiment in all cases: NCI anticancer screen, dose series, 48 h
SF-539 CNS = test system: SF-539 CNS
SNB-78 CNS = test system: SNB-78 CNS
SK-MEL-2 melanoma = test system: SK-MEL-2 melanoma
LOX IMVI melanoma = test system: LOX IMVI melanoma
HOP-62 NSCLC = test system: HOP-62 NSCLC
UACC-62 melanoma = test system: UACC-62 melanoma
HCC-2998 colon = test system: HCC-2998 colon
SF-268 CNS = test system: SF-268 CNS
OVCAR-4 ovarian = test system: OVCAR-4 ovarian
UACC-257 melanoma = test system: UACC-257 melanoma
TK-10 renal = test system: TK-10 renal
MOLT-4 leukemia = test system: MOLT-4 leukemia
IGROV1 ovarian = test system: IGROV1 ovarian
CAKI-1 renal = test system: CAKI-1 renal
NCI-H522 lung = test system: NCI-H522 lung
ACHN renal = test system: ACHN renal
SNB-75 CNS = test system: SNB-75 CNS
HCT-116 colon = test system: HCT-116 colon
HT29 colon = test system: HT29 colon
LXFL 529 NSCLC = test system: LXFL 529 NSCLC
OVCAR-5 ovarian = test system: OVCAR-5 ovarian
EKVX NSCLC = test system: EKVX NSCLC
KM12 colon = test system: KM12 colon
NCI-H226 lung = test system: NCI-H226 lung
CCRF-CEM leukemia = test system: CCRF-CEM leukemia
A498 renal = test system: A498 renal
786-0 renal = test system: 786-0 renal
SK-MEL-28 melanoma = test system: SK-MEL-28 melanoma
SW-620 colon = test system: SW-620 colon
XF 498 CNS = test system: XF 498 CNS
U251 CNS = test system: U251 CNS
HOP-92 NSCLC = test system: HOP-92 NSCLC
RXF-631 renal = test system: RXF-631 renal
COLO 205 colon = test system: COLO 205 colon
DMS 114 small cell lung = test system: DMS 114 small cell lung
SK-MEL-5 melanoma = test system: SK-MEL-5 melanoma
SR leukemia = test system: SR leukemia
UO-31 renal = test system: UO-31 renal
SF-295 CNS = test system: SF-295 CNS
RPMI-8226 leukemia = test system: RPMI-8226 leukemia
SK-OV-3 ovarian = test system: SK-OV-3 ovarian
OVCAR-8 ovarian = test system: OVCAR-8 ovarian
HOP-18 NSCLC = test system: HOP-18 NSCLC
NCI-H460 lung = test system: NCI-H460 lung
MALME-3M melanoma = test system: MALME-3M melanoma
K-562 leukemia = test system: K-562 leukemia
NCI-H23 lung = test system: NCI-H23 lung
A549 NSCLC = test system: A549 NSCLC
HCT-15 colon = test system: HCT-15 colon
DLD-1 colon = test system: DLD-1 colon
M14 melanoma = test system: M14 melanoma
M19-MEL melanoma = test system: M19-MEL melanoma
SN12C renal = test system: SN12C renal
HL-60(TB) leukemia = test system: HL-60(TB) leukemia

Measured: TGI

CCOC(=O)/C(=C/c1cccc(C#N)c1)N(CC)CC
> 100 µM: SF-539 CNS | SNB-78 CNS | SK-MEL-2 melanoma | LOX IMVI melanoma | HOP-62 NSCLC | UACC-62 melanoma | HCC-2998 colon | SF-268 CNS | OVCAR-4 ovarian | UACC-257 melanoma | TK-10 renal | MOLT-4 leukemia | IGROV1 ovarian | CAKI-1 renal | NCI-H522 lung | ACHN renal | SNB-75 CNS | HCT-116 colon | HT29 colon | LXFL 529 NSCLC | OVCAR-5 ovarian | EKVX NSCLC | KM12 colon | NCI-H226 lung | CCRF-CEM leukemia | A498 renal | 786-0 renal | SK-MEL-28 melanoma | SW-620 colon | XF 498 CNS | U251 CNS | HOP-92 NSCLC | RXF-631 renal | COLO 205 colon | DMS 114 small cell lung | SK-MEL-5 melanoma | SR leukemia | UO-31 renal | SF-295 CNS | RPMI-8226 leukemia | SK-OV-3 ovarian | OVCAR-8 ovarian | HOP-18 NSCLC | NCI-H460 lung | MALME-3M melanoma | K-562 leukemia | NCI-H23 lung | A549 NSCLC | HCT-15 colon | DLD-1 colon | M14 melanoma | M19-MEL melanoma | SN12C renal | HL-60(TB) leukemia
